Experiments:
[1] = test system: IL-8; assay: IL-8 synthesis and liberation induced by lipopolysaccharide in isolated human blood mononuclear cells (IL-8 in the supernatant, sandwich enzyme immuno test); assay type: cell-based; details: for activity at 50 µM / activity at 100 µM: Homo sapiens, control without substance set at 100%, 37° C., 1 h, lipopolysaccharide-induced, read-out: IL-8 in the supernatant % +/- standard deviation; for activity at 50 µM: concentration 0.05 mmol/l; for activity at 100 µM: concentration 0.1 mmol/l; for effect on the IL-8 level / effect on the synthesis and liberation of cytokines from human blood cells: in words; for effect on the IL-8 level: experiments in Tab. 1
Protocol: 10 ml of freshly prepared human citrate blood were carefully underlaid with 15 ml of Lymphoprep^(R) (Molter GmbH, Heidelberg) and then centrifuged at 400 ×g for 40 min. at 20° C. The cell fraction which was visible as a white ring at the phase boundary was removed with the aid of a syringe, diluted 1:1 (v/v) with PM-16 buffer (from Serva Feinbiochemica GmbH & Co. KG, Heidelberg) and then centrifuged, as above, for 10 min. […] Using a cell counter (type IT, from Coulter Diagnostics, Krefeld), the cell suspension, which is composed of about 90% lymphocytes and 10% monocytes, was adjusted to about 5 million cells/mi. Cell viability was monitored before and after the inhibition experiments using the known lactate dehydrogenase method.
The synthesis and liberation of cellular IL-8 was induced by adding a solution of 500 ng of lipopolysaccharide (Salmonella abortus equi, Sigma GmbH, Deisenhofen) in 0.01 ml of dimethyl sulfoxide/water (1:10, v/v) to 0.48 ml of the above-described cell fraction. At the same time, a solution of leflunomide or leflunomide metabolite in 0.01 ml of dimethyl sulfoxide (for the final concentration in each case, see Tab. 1) was added to the cell fraction and the mixture was left at 37° C. for 1h in a commercially available incubator. After cooling down to 0° C., the samples were centrifuged for 1 min. in a bench centrifuge and in each case 0.025 ml aliquots of the supernatant were examined for their […] content using a "sandwich" enzyme immuno test kit (from Biermann GmbH, Bad Nauheim) in accordance with the manufacturer's instructions. The control values were determined without the addition of leflunomide or its metabolites and set at 100%.

[2] = test system: mononuclear cells; assay: Metabolism of leflunomide in the mononuclear cell test sample (HPLC); assay type: in vitro ADME, human; details: in words; under the experimental conditions employed
[3] = as above; assay type: in vitro ADME, human; details: blood mononuclear cells; under the conditions employed; human mononuclear cell fraction; read-out: half life of metabolism of leflunomide to its metabolites (converted)

Structure (SMILES)	activity at 50 µM [1] [%]	activity at 100 µM [1] [%]	effect on the IL-8 level [1]	effect on the synthesis and liberation of cytokines from human blood cells [1]	metabolism of leflunomide [2]	half-life [3] [h]
C/C(O)=C(\C#N)C(=O)Nc1ccc(C(F)(F)F)cc1 [Leflunomide metabolite, N-(4-trifluoromethylphenyl)-2-cyano-3-hydroxycrotonamide]	97	99	practically no effect on the IL-8 level	does not exhibit this advantageous effect	–	–
Cc1oncc1C(=O)Nc1ccc(C(F)(F)F)cc1 [Leflunomide, N-(4-trifluoromethylphenyl)-5-methylisoxazole-4-carboxamide]	83	61 ± 11	IL-8 level is clearly lowered	strong inhibitory effect	no appreciable metabolism	~10

— patent US5547971A, “Use of leflunomide for inhibiting interleukin 8” (priority 1993, dated 1996)
